Experimental data from patent publication US4443460A, “2-[4-(Diphenylmethylene)-1-piperidinyl]-acetic acids and their amides” (UCB, Societe Anonyme, priority 1980, dated 1984).
Structures can show the parent of a compound that is named as a salt.

How the values were obtained:
[1] = test system: bronchospasms induced by acetylcholine; assay: Konzett-Roessler bronchospasm test, acetylcholine-induced; type: in vivo; conditions: Cavia porcellus, iv, guinea pigs, i.v., read-out: dose which inhibits 50% of the induced bronchospasms, Acetylcholine
Method: (§1) These activities were measured in guinea pigs by the method of H. Konzett and R. […] Anaesthetized and curarized guinea pigs are subjected to artificial ventilation. The endotracheal pressure is recorded. Repeated bronchial spasms are induced by successive and progressive intravenous injections of respectively acetylcholine, histamine and serotonin. The test compounds are also administered intravenously.

[2] = test system: mice; conditions: mouse, in vivo, ip
Method: (§2) Progressive doses of the test compounds are administered intraperitoneally to groups of three male mice (body weight 18 to 22 g) and the general behaviour of the animals is observed according to known criteria. The reference compounds used are the following:
Furthermore, in this test, the toxicity of the compounds according to the present invention appears to be very low. This toxicity, determined by intraperitoneal administration in mice (dose which brings about the death of two animals out of three), is given in the following Table: […]

[3] = test system: passive cutaneous anaphylaxis; assay: passive cutaneous anaphylaxis test (PCA), antiallergic activity; type: in vivo; conditions: rats; for ED50: Rattus norvegicus, 0.25 h, read-out: ID 50 per os (reduction of 50% of the surface area of the colored spot)
Method: This activity is determined in rats by means of the passive cutaneous anaphylaxis test (PCA) (see J. Goose and A. M. J. N. Blair, Immunology,16,(1969),749-760; and U. Martin and D. Roemer, Arzneimittel-Forschung,28,(5), (1978),770-782).
Female rats are used, the sides of which have been partly shaved. Into the zone thus shaved there is injected intradermally, for passive sensitization of the animals, 0.05 ml of IGE antiovalbumin serum at a dilution such that, at the time of the PCA test, a distinct spot with a surface area of about 100 mm^2 appears at the point of injection.
72 Hours after the injection, 0.25 ml of a solution of allergen containing a coloring agent (5 mg of ovalbumin and 6 mg Evans Blue in 0.25 ml of a 0.9% aqueous solution of sodium chloride) is administered intravenously. At the point of intradermal injection, there appears a distinct blue spot, the surface of which is measured.
In order to test the activity of the compound according to the present invention, the procedure is carried out in the same manner; however:
the test compound is administered orally 72 hours after injection of the serum;
15 minutes after this administration, 0.25 ml of the solution of the allergen is injected intravenously;
30 minutes after the administration of the allergen, the surface of the blue spot is measured.
The following Table gives the immunological doses (ID 50 in μmol/kg) which bring about, on average of the total number of animals submitted to the test, a reduction of 50% of the surface area of the colored spot.

[4] = test system: mice; assay: General behaviour of mice (Irwin's test), tranquilization; type: in vivo; conditions: male mice, intraperitoneal
Method: The behaviour is studied by means of Irwin's test (see S. Irwin, "General philosophy and methodology of screening: a multidimensional approach"; Gordon Research Conference on Medicinal Chemistry, Aug. 3-7, 1959, at Colby Junior College, New London).
as §2
The following Table gives the doses (in mg/kg) which induce the first manifestations of tranquilization in the animals: […]

[5] = test system: bronchospasms induced by histamine; assay: Konzett-Roessler bronchospasm test, histamine-induced (antihistaminic activity); type: in vivo; conditions: guinea pigs, i.v.; for ED50: Cavia porcellus, iv, histamine-induced, read-out: dose which inhibits 50% of the induced bronchospasms, Histamine
Method: as §1

[6] = test system: bronchospasms induced by serotonin; assay: Konzett-Roessler bronchospasm test, serotonin-induced; type: in vivo; conditions: Cavia porcellus, iv, guinea pigs, i.v., read-out: dose which inhibits 50% of the induced bronchospasms, Serotonin
Method: as §1

[7] = test system: respiratory spasm induced by pilocarpine; assay: pilocarpine dog test, broncholytic activity; type: in vivo; conditions: dogs, i.v.
Method: Anaesthetized and curarized dogs are subjected to artificial ventilation. The endotracheal pressure is recorded. A constant respiratory spasm is induced by the continuous intravenous perfusion of pilocarpine. The test substances are also administered intravenously.

[8] = Oral toxicity LD50 in rats; conditions: rat, in vivo
Method: (§3) The compounds according to the present invention have a very low toxicity. The toxicity LD50 (in mg/kg) is determined by oral administration to rats and mice. Thus, in the case of compound A, this toxicity is 1903 mg/kg in rats and 959 mg/kg in mice.

[9] = Oral toxicity LD50 in mice; conditions: mouse, in vivo
Method: as §3

[10] = oral, allergen i.v. 15 minutes after administration

SMILES | ED50 [1] [mg/kg] | Toxicity (dose which brings about the death of two animals out of three) [2] [mg/kg] | ED50 [3, 10] [µmol/kg] | "Tranquilizing" dose (first manifestations of tranquilization) [4] | ED50 [5] [mg/kg] | ED50 [6] [mg/kg] | other results
O=C(O)COCCN1CCC(=C(c2ccccc2)c2ccc(F)cc2)CC1 [compound L, 2-[2-[4-[(4-fluorophenyl)phenylmethylene]-1-piperidinyl]ethoxy]-acetic acid] | > 11.8 | 369 | 34 | 110 mg/kg | 0.058 | 0.198 | –
COc1ccc(C(=C2CCN(CCOCC(N)=O)CC2)c2ccccc2)cc1.Cl [compound H, 2-[2-[4-[(4-methoxyphenyl)phenylmethylene]-1-piperidinyl]ethoxy]-acetamide hydrochloride] | > 41.6 | 416 | 31.4 | – | 0.026 | 0.18 | –
Cl.O=C(O)COCCN1CCC(=C(c2ccccc2)c2ccccc2Cl)CC1 [compound K, 2-[2-[4-[(2-chlorophenyl)phenylmethylene]-1-piperidinyl]ethoxy]-acetic acid hydrochloride] | 39.5 | 422 | 100 | 126 mg/kg | 0.104 | 0.43 | –
Cl.O=C(O)COCCN1CCC(=C(c2ccccc2)c2ccccc2)CC1 [compound B, 2-[2-[4-(diphenylmethylene)-1-piperidinyl]ethoxy]-acetic acid hydrochloride] | > 82.5 | 233 | 39 | 105 mg/kg | 0.037 | 0.206 | –
Cl.NC(=O)COCCOCCN1CCC(=C(c2ccccc2)c2ccccc2)CC1 [compound C, 2-[2-[2-[4-(diphenylmethylene)-1-piperidinyl]ethoxy]ethoxy]-acetamide hydrochloride] | 0.47 | 258 | 76 | – | 0.031 | 0.009 | –
O=C(O)c1cc(=O)c2c(OCC(O)COc3cccc4oc(C(=O)O)cc(=O)c34)cccc2o1 [sodium cromoglycate, reference compound] | – | – | – | – | – | – | ID 50 per os (reduction of 50% of the surface area of the colored spot) [3, 10]: inactive; activity when administered per os (in words) ([3]; per os): inactive
Cn1c(=O)c2[nH]cnc2n(C)c1=O [theophylline, reference compound] | – | – | – | – | – | – | reduction of the intensity of the induced spasm ([7]; 3200 μg/kg): 35%
COc1ccc(C(=C2CCN(CCOCC(=O)O)CC2)c2ccccc2)cc1.Cl [compound M, 2-[2-[4-[(4-methoxyphenyl)phenylmethylene]-1-piperidinyl]ethoxy]-acetic acid hydrochloride] | > 41.8 | 418 | 208 | 125 mg/kg | 0.181 | 0.893 | –
NC(=O)COCCOCCN1CCC(=C(c2ccccc2)c2ccc(Cl)cc2)CC1 [compound E, 2-[2-[2-[4-[(4-chlorophenyl)phenylmethylene]-1-piperidinyl]ethoxy]ethoxy]-acetamide] | > 4.29 | 128 | 34 | – | 0.348 | 0.085 | –
Cl.NC(=O)COCCN1CCC(=C(c2ccccc2)c2ccc(Cl)cc2)CC1 [compound D, 2-[2-[4-[(4-chlorophenyl)phenylmethylene]-1-piperidinyl]ethoxy]-acetamide hydrochloride] | – | 126 | 67.4 | – | – | – | –
NC(=O)COCCN1CCC(=C(c2ccccc2)c2ccc(F)cc2)CC1 [compound G, 2-[2-[4-[(4-fluorophenyl)phenylmethylene]-1-piperidinyl]ethoxy]-acetamide] | > 11.8 | 368 | 5.5 | – | 0.093 | 0.023 | –
Cl.O=C(O)COCCOCCN1CCC(=C(c2ccccc2)c2ccccc2)CC1 [compound A, 2-[2-[2-[4-(diphenylmethylene)-1-piperidinyl]ethoxy]ethoxy]-acetic acid hydrochloride] | 4.13 | 432 | 133 | 130 mg/kg | 2.65 | 2.56 | reduction of the intensity of the induced spasm ([7]; 320 μg/kg): 50%; broncholytic activity compared with theophylline (in words) ([7]; vs theophylline): clearly superior to that of theophylline; LD50 [8]: 1900 mg/kg; antihistaminic activity 4 hours after injection ([5]; 1 mg/kg, 4 hours): retains this activity; antihistaminic activity after 90 minutes ([5]; 1 mg/kg, after 90 minutes): 100%; LD50 [9]: 959 mg/kg
Cl.O=C(COCCOCCN1CCC(=C(c2ccccc2)c2ccccc2)CC1)Nc1ccccc1 [compound N, 2-[2-[2-[4-(diphenylmethylene)-1-piperidinyl]ethoxy]ethoxy]-N-phenylacetamide hydrochloride] | 1.35 | – | 15.2 | – | 0.192 | 0.086 | –
OCCOCCN1CCN(C(c2ccccc2)c2ccc(Cl)cc2)CC1 (stereo not drawn) [Hydroxyzine, 1-(p-chloro-alpha-phenylbenzyl)-4-(2-hydroxyethoxyethyl)piperazine, reference compound] | – | – | – | 27 mg/kg | – | – | –
NC(=O)COCCN1CCC(=C(c2ccccc2)c2ccccc2Cl)CC1 [compound F, 2-[2-[4-[(2-chlorophenyl)phenylmethylene-1-piperidinyl]ethoxy]-acetamide hydrochloride] | > 1.35 | 421 | 66 | no sedative effect at all | 0.551 | 0.055 | –
Cl.O=C(O)COCCOCCN1CCC(=C(c2ccccc2)c2ccc(Cl)cc2)CC1 [compound J, 2-[2-[2-[4-[(4-chlorophenyl)phenylmethylene]-1-piperidinyl]ethoxy]ethoxy]-acetic acid hydrochloride] | > 46.6 | 140 | 100 | 47 mg/kg | 0.283 | 0.796 | –
Cl.O=C(O)COCCN1CCC(=C(c2ccccc2)c2ccc(Cl)cc2)CC1 [compound I, 2-[2-[4-[(4-chlorophenyl)phenylmethylene]-1-piperidinyl]ethoxy]-acetic acid hydrochloride] | 13.5 | 844 | 100 | 76 mg/kg | 0.413 | 1.18 | –
O=C1Nc2ccc(Cl)cc2C(c2ccccc2)=NC1O (stereo not shown) [Oxazepam, 7-chloro-1,3-dihydro-3-hydroxy-5-phenyl-2H-1,4-benzodiazepin-2-one, reference compound] | – | – | – | 2.6 mg/kg | – | – | –
